≈ marks a conversion by molar mass, not a printed value.
Key:
Daphnia magna = settings: chronic/long-term; duration: 21 days; reproduction
Colinus virginianus = settings: for LD50: acute, oral, mortality
Anas platyrhynchos = settings: for LD50: oral, mortality
Apis mellifera = settings: acute; duration: 48 hours; dermal; mortality
Canidae = settings: subchronic; duration: 90 days; oral; Dog Other; histopathology: nonneoplastic

SMILES: CC(C)Oc1cccc(NC(=O)c2ccccc2C(F)(F)F)c1 [Flutolanil]
- NOEC (Daphnia magna): 0.53 mg/L
- LD50 (Colinus virginianus; diet): > 961 mg/kg-day
- LD50 (Colinus virginianus): > 2000 mg/kg-day
- NOEL (Colinus virginianus; reproduction developmental): 247 mg/kg-day
- LD50 (Anas platyrhynchos; acute, unspecified): > 2000 mg/kg-day
- NOEL (Anas platyrhynchos; reproductive): 267 mg/kg-day
- LD50 (Anas platyrhynchos; short-term, feed): 1250 mg/kg-day
- LD50 (Apis mellifera): > 200 µg/piece
- LC50 (Pimephales promelas; acute, duration: 96 hours, mortality): 4.8 µg/mL (≈ 14.8 µM)
- NOEC (Pimephales promelas; chronic/long-term, duration: 30 days, growth): 0.233 mg/L
- NOAEL (Canidae): 80 mg/kg-day
- LC50 (Tagia sp.; acute, duration: 14 days, mortality): > 1000 mg/kg
- NOEC (Tagia sp.; chronic/long-term, duration: 56 days): 12.9 mg/kg
- LD50 (Rattus norvegicus; acute, oral, mortality): > 10000 mg/kg-day
- NOAEL (Rattus norvegicus; chronic, duration: 2 years, F, hematological): 8.7 mg/kg-day
- NOAEL (Rattus norvegicus; chronic, duration: 2 years, M, histopathology: nonneoplastic): 8.7 mg/kg-day
- NOAEL (Rattus norvegicus; reproduction developmental, organ weight): 157 mg/kg-day
